Experimental data as given in patent US7858084B2, “Methods of treatment with renalase (monoamine oxidase C)” (Yale University, priority 2005, dated 2010).
Read-outs that look alike come from different tables or passages of the source.

Columns and labels:
renalase [1] = system: renalase
Description: Horizontal bars at top of figure indicate period of 5 minute epinephrine infusions.

renalase [2] = biological target: renalase (Rattus norvegicus, UniProt Q5U2W9); conditions: CKD rats compared with control rats
Sequence of renalase (Rattus norvegicus, UniProt Q5U2W9) (Q5U2W9 18-315): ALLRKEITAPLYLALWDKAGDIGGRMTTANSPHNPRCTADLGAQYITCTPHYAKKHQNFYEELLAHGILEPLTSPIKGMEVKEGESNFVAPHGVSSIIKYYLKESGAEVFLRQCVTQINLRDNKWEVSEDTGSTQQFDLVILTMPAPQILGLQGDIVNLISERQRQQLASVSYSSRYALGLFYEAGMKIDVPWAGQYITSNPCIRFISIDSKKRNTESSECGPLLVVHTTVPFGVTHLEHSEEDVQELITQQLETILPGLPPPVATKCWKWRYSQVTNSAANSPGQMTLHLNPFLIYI

Structure (SMILES): CNC[C@H](O)c1ccc(O)c(O)c1 [epinephrine]
- renalase protein levels in blood (renalase [1]; second administration 30 minutes later): only a modest decline
- renalase protein levels in blood (renalase [1]; shortly after an initial infusion of epinephrine): drop significantly
- renalase protein levels in blood (renalase [1]; within ten minutes of the initial infusion): recover and exceed initial protein levels
- magnitude and duration of blood renalase activation (renalase [2]): significantly lower
